# Biological target: T1, CHK1 (Homo sapiens, UniProt O14757)
# T1 construct: His; purchased Invitrogen
# T1 sequence (O14757 1-476): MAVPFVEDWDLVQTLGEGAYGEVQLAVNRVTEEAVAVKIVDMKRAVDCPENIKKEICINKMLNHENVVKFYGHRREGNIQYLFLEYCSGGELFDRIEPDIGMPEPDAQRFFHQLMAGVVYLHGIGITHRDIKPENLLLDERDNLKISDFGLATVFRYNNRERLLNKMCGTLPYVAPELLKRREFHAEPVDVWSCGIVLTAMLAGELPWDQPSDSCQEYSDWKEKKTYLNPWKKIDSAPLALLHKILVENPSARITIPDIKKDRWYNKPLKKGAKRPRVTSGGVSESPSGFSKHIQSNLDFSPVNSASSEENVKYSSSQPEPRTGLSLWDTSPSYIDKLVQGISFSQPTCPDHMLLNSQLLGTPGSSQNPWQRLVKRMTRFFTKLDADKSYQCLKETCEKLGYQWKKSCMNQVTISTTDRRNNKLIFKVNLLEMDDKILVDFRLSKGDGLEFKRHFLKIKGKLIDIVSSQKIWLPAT
# Assay: CHK1 Enzyme Assay (phosphorylation of Chktide peptide, 33P-ATP filter assay)
# Format: biochemical
# Details: 12.5 nM His-CHK1, 0.01 mM ATP, 40 minutes at 30° C.; read-out: CHK1 Enzyme Activity (IC50 range)
# How it was run: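 His-CHK1 (12.5 nM) phosphorylating 14.8 μM Chktide with 0.01 mM ATP plus 33P-γ-ATP, in 50 mM Hepes-NaOH pH 7.5 with 0.1 mg/mL BSA. Incubated with inhibitor for 40 min at 30 °C. Stopped with phosphoric acid; phosphopeptide captured on filter and counted by scintillation.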
row,Compound,IC50 [nM]
1,"Cc1ccc(Cn2cc(C(=O)Nc3c[nH]c(=O)c(-c4cc5cc(N6CCN(C)CC6)ccc5[nH]4)c3)cn2)cc1 [Example 112, 1-(4-Methyl-benzyl)-1H-pyrazole-4-carboxylic acid {5-[5-(4-methyl-piperazin-1-yl)-1H-indol-2-yl]-6-oxo-1,6-dihydro-pyridin-3-yl}-amide]",< 100
2,"CN1CCN(c2ccc3[nH]c(-c4cc(NC(=O)c5cnn(Cc6ccccc6)c5)c[nH]c4=O)cc3c2)CC1 [Example 113, 1-Benzyl-1H-pyrazole-4-carboxylic acid {5-[5-(4-methyl-piperazin-1-yl)-1H-indol-2-yl]-6-oxo-1,6-dihydro-pyridin-3-yl}-amide]",< 100
3,"CN1CCN(c2ccc3[nH]c(-c4cc(NC(=O)c5cnn(Cc6ccc(F)cc6)c5)c[nH]c4=O)cc3c2)CC1 [Example 114, 1-(4-Fluoro-benzyl)-1H-pyrazole-4-carboxylic acid {5-[5-(4-methyl-piperazin-1-yl)-1H-indol-2-yl]-6-oxo-1,6-dihydro-pyridin-3-yl}-amide]",< 100
4,"Cc1ccc(Cn2cc(C(=O)Nc3c[nH]c(=O)c(-c4cc5cc(OCCN6CCCCC6)ccc5[nH]4)c3)cn2)cc1 [Example 115, 1-(4-Methyl-benzyl)-1H-pyrazole-4-carboxylic acid {6-oxo-5-[5-(2-piperidin-1-yl-ethoxy)-1H-indol-2-yl]-1,6-dihydro-pyridin-3-yl}-amide]",< 100
5,"Cc1ccc(Cn2cc(C(=O)Nc3c[nH]c(=O)c(-c4cc5cc(OCCN6CCCC(F)C6)ccc5[nH]4)c3)cn2)cc1 (stereo not shown) [Example 116, 1-(4-Methyl-benzyl)-1H-pyrazole-4-carboxylic acid (5-{5-[2-(3-fluoro-piperidin-1-yl)-ethoxy]-1H-indol-2-yl}-6-oxo-1,6-dihydro-pyridin-3-yl)-amide]",< 100
6,"Cc1ccc(Cn2cc(C(=O)Nc3c[nH]c(=O)c(-c4cc5cc(OCCCN6CCOCC6)ccc5[nH]4)c3)cn2)cc1 [Example 117, 1-(4-Methyl-benzyl)-1H-pyrazole-4-carboxylic acid {5-[5-(3-morpholin-4-yl-propoxy)-1H-indol-2-yl]-6-oxo-1,6-dihydro-pyridin-3-yl}-amide]",< 100
7,"Cc1ccc(Cn2cc(C(=O)Nc3c[nH]c(=O)c(-c4cc5cc(OCCN6CCOCC6)ccc5[nH]4)c3)cn2)cc1 [Example 118, 1-(4-Methyl-benzyl)-1H-pyrazole-4-carboxylic acid {5-[5-(2-morpholin-4-yl-ethoxy)-1H-indol-2-yl]-6-oxo-1,6-dihydro-pyridin-3-yl}-amide]",< 100
8,"Cc1ccc(Cn2cc(C(=O)Nc3c[nH]c(=O)c(-c4cc5cc(OCCCN6CCCCC6)ccc5[nH]4)c3)cn2)cc1 [Example 119, 1-(4-Methyl-benzyl)-1H-pyrazole-4-carboxylic acid {6-oxo-5-[5-(3-piperidin-1-yl-propoxy)-1H-indol-2-yl]-1,6-dihydro-pyridin-3-yl}-amide]",< 100
9,"O=C(Nc1c[nH]c(=O)c(-c2cc3cc(OCCN4CCCCC4)ccc3[nH]2)c1)c1cnn(Cc2ccc(C(F)(F)F)cc2)c1 [Example 121, 1-(4-Trifluoromethyl-benzyl)-1H-pyrazole-4-carboxylic acid {6-oxo-5-[5-(2-piperidin-1-yl-ethoxy)-1H-indol-2-yl]-1,6-dihydro-pyridin-3-yl}-amide]",< 100
10,"Cc1ccc(Cn2cc(C(=O)Nc3c[nH]c(=O)c(-c4cc5cc(OCCCN(C)C)ccc5[nH]4)c3)cn2)cc1 [Example 122, 1-(4-Methyl-benzyl)-1H-pyrazole-4-carboxylic acid {5-[5-(3-dimethylamino-propoxy)-1H-indol-2-yl]-6-oxo-1,6-dihydro-pyridin-3-yl}-amide]",< 100
11,"CCN(CC)CCCOc1ccc2[nH]c(-c3cc(NC(=O)c4cnn(Cc5ccc(C)cc5)c4)c[nH]c3=O)cc2c1 [Example 123, 1-(4-Methyl-benzyl)-1H-pyrazole-4-carboxylic acid {5-[5-(3-diethylamino-propoxy)-1H-indol-2-yl]-6-oxo-1,6-dihydro-pyridin-3-yl}-amide]",< 100
12,Cc1ccc(Cn2cc(C(=O)Nc3c[nH]c(=O)c(-c4cc5cc(OCCCN6CCN(C)CC6)ccc5[nH]4)c3)cn2)cc1 [Example 124],< 100
13,"CCN(CC)CCOc1ccc2[nH]c(-c3cc(NC(=O)c4cnn(Cc5ccc(C)cc5)c4)c[nH]c3=O)cc2c1 [Example 125, 1-(4-Methyl-benzyl)-1H-pyrazole-4-carboxylic acid {5-[5-(2-diethylamino-ethoxy)-1H-indol-2-yl]-6-oxo-1,6-dihydro-pyridin-3-yl}-amide]",< 100

# Continued, values first:
row,IC50 [nM],Compound
1,< 100,"Cc1ccc(Cn2cc(C(=O)Nc3c[nH]c(=O)c(-c4cc5cc(OCCN6CCN(C)CC6)ccc5[nH]4)c3)cn2)cc1 [Example 126, 1-(4-Methyl-benzyl)-1H-pyrazole-4-carboxylic acid (5-{5-[2-(4-methyl-piperazin-1-yl)-ethoxy]-1H-indol-2-yl}-6-oxo-1,6-dihydro-pyridin-3-yl)-amide]"
2,< 100,"CCc1cccc(Cn2cc(C(=O)Nc3c[nH]c(=O)c(-c4cc5cc(OCCCN6CCN(C)CC6)ccc5[nH]4)c3)cn2)c1 [Example 127, 1-(3-Ethyl-benzyl)-1H-pyrazole-4-carboxylic acid (5-{5-[3-(4-methyl-piperazin-1-yl)-propoxy]-1H-indol-2-yl}-6-oxo-1,6-dihydro-pyridin-3-yl)-amide]"
3,< 100,"CCc1cccc(Cn2cc(C(=O)Nc3c[nH]c(=O)c(-c4cc5cc(OCCN(C)C)ccc5[nH]4)c3)cn2)c1 [Example 128, 1-(3-Ethyl-benzyl)-1H-pyrazole-4-carboxylic acid {5-[5-(2-dimethylamino-ethoxy)-1H-indol-2-yl]-6-oxo-1,6-dihydro-pyridin-3-yl}-amide]"
4,< 100,"CCc1cccc(Cn2cc(C(=O)Nc3c[nH]c(=O)c(-c4cc5cc(OCCCN(C)C)ccc5[nH]4)c3)cn2)c1 [Example 129, 1-(3-Ethyl-benzyl)-1H-pyrazole-4-carboxylic acid {5-[5-(3-dimethylamino-propoxy)-1H-indol-2-yl]-6-oxo-1,6-dihydro-pyridin-3-yl}-amide]"
5,< 100,"CCc1cccc(Cn2cc(C(=O)Nc3c[nH]c(=O)c(-c4cc5cc(OCCN(CC)CC)ccc5[nH]4)c3)cn2)c1 [Example 130, 1-(3-Ethyl-benzyl)-1H-pyrazole-4-carboxylic acid {5-[5-(2-diethylamino-ethoxy)-1H-indol-2-yl]-6-oxo-1,6-dihydro-pyridin-3-yl}-amide]"
6,< 100,"Cc1ccc(Cn2cc(C(=O)Nc3c[nH]c(=O)c(-c4cc5cc(OCCN6CC(C)OC(C)C6)ccc5[nH]4)c3)cn2)cc1 (stereo not shown) [Example 131, 1-(4-Methyl-benzyl)-1H-pyrazole-4-carboxylic acid (5-{5-[2-(2,6-dimethyl-morpholin-4-yl)-ethoxy]-1H-indol-2-yl}-6-oxo-1,6-dihydro-pyridin-3-yl)-amide]"
7,< 100,"Cc1ccc(Cn2cc(C(=O)Nc3c[nH]c(=O)c(-c4cc5cc(OCCN(C)C)ccc5[nH]4)c3)cn2)cc1 [Example 132, 1-(4-Methyl-benzyl)-1H-pyrazole-4-carboxylic acid {5-[5-(2-dimethylamino-ethoxy)-1H-indol-2-yl]-6-oxo-1,6-dihydro-pyridin-3-yl}-amide]"
8,< 100,"CCc1cccc(Cn2cc(C(=O)Nc3c[nH]c(=O)c(-c4cc5cc(OCCN6CCN(C)CC6)ccc5[nH]4)c3)cn2)c1 [Example 133, 1-(3-Ethyl-benzyl)-1H-pyrazole-4-carboxylic acid (5-{5-[2-(4-methyl-piperazin-1-yl)-ethoxy]-1H-indol-2-yl}-6-oxo-1,6-dihydro-pyridin-3-yl)-amide]"
9,< 100,"CCc1cccc(Cn2cc(C(=O)Nc3c[nH]c(=O)c(-c4cc5cc(OCCCN6CCCCC6)ccc5[nH]4)c3)cn2)c1 [Example 134, 1-(3-Ethyl-benzyl)-1H-pyrazole-4-carboxylic acid {6-oxo-5-[5-(3-piperidin-1-yl-propoxy)-1H-indol-2-yl]-1,6-dihydro-pyridin-3-yl}-amide]"
10,< 100,"CCc1cccc(Cn2cc(C(=O)Nc3c[nH]c(=O)c(-c4cc5cc(OCCN6CCCCC6)ccc5[nH]4)c3)cn2)c1 [Example 135, 1-(3-Ethyl-benzyl)-1H-pyrazole-4-carboxylic acid {6-oxo-5-[5-(2-piperidin-1-yl-ethoxy)-1H-indol-2-yl]-1,6-dihydro-pyridin-3-yl}-amide]"
11,< 100,"CCc1cccc(Cn2cc(C(=O)Nc3c[nH]c(=O)c(-c4cc5cc(OCCCN(CC)CC)ccc5[nH]4)c3)cn2)c1 [Example 136, 1-(3-Ethyl-benzyl)-1H-pyrazole-4-carboxylic acid {5-[5-(3-diethylamino-propoxy)-1H-indol-2-yl]-6-oxo-1,6-dihydro-pyridin-3-yl}-amide]"
12,< 100,"Cc1ccc(Cn2cc(C(=O)Nc3c[nH]c(=O)c(-c4cc5cc(OCC(C)(C)CN(C)C)ccc5[nH]4)c3)cn2)cc1 [Example 137, 1-(4-Methyl-benzyl)-1H-pyrazole-4-carboxylic acid {5-[5-(3-dimethylamino-2,2-dimethyl-propoxy)-1H-indol-2-yl]-6-oxo-1,6-dihydro-pyridin-3-yl}-amide]"
